These results are taken from patent US6686382B2, “Sulfonamides and derivatives thereof that modulate the activity of endothelin” (Encysive Pharmaceuticals Inc., priority 1999, dated 2004).

pIC50: −log10 of the molar value.

One data set concerns the target T1, CYP2C9 (Homo sapiens, UniProt P11712).
T1 construct: purchased Gentest Corporation P258
The data set is described as follows: Cytochrome P450 enzyme assay, CYP2C9 (Gentest Supersomes, fluorometric). The settings on record: human recombinant enzyme, mean IC50; read-out: CP450 2C9 IC50. Format: in vitro ADME. As to the method:
(§1) In vitro assays to determine the concentration of the compounds provided herein required for 50% inhibition of substrate metabolism (IC50) by different human cytochrome P450 enzymes (2C9, 2C19, 3A4) were conducted using human recombinant cytochrome P450 enzyme assays, developed by Gentest Corporation. These assays contain Gentest Supersomes™ (specific human cytochrome P450 enzyme, co-expressed with P450 reductase and cytochrome b5), a NADPH regenerating system, substrate and a concentration range of the compounds provided herein. The fluorescent product was the measured end point for these assays. IC50s were calculated using a four-parameter logistic equation with the bottom fixed at 0% inhibition and the top fixed at 100% inhibition. (Values are the mean IC50±SD when n is greater than 1.)
(§2) Assays were conducted in 96-well microtiter plates using fluorometric assays developed by Gentest Corporation. The 12 wells in each row were used for one inhibition curve. Wells 1 to 8 contained serial 1:3 dilutions of the test compound. Wells 9 to 12 contained no inhibitor and wells 11 and 12 were blanks for background fluorescence (stop solution was added before the enzyme). All concentration curves were performed in duplicate. Incubations were initiated by the addition of enzyme and substrate to the pre-warmed reaction mixture. After a specific incubation period, the reaction was stopped by the addition of stop solution. Metabolite production per well was determined by measuring fluorescence using a fluorescent plate reader. Detailed experimental procedures for each enzyme are listed below. See, generally, Methodology of a high throughput method for measuring cytochrome P450 inhibition (Gentest Corporation, Technical Bulletin); Crespi, C. L.; Miller, V. P.; and Penman, B. W. (1997) Anal. Biochem. 248:188-190; and Geungerich, F. P. (1997) Adv. Pharm. 43:7-35.
A 0.2 ml/well reaction mixture containing 2 pmol CYP2C9 (P258), 1.3 mM NADP^+, 3.3 mM glucose-6-phosphate, 3.3 mM magnesium chloride, 0.4 U/ml glucose-6-phosphate dehydrogenase and 75 μM 7-methoxy-4-trifluoromethylcoumarin in […] (pH 7.4), was incubated at 37° C. for 45 minutes. Sulfaphenazole, a standard inhibitor of CYP2C9, was serially diluted from the highest concentration of 10 μM and acted as a positive control. […] After incubation, the reaction was stopped by the addition of 75 μl stop solution (80% acetonitrile/20% 0.5 M Tris base) and fluorescence/well was measured using a Spectra Fluor (Tecan) or Cytoflour 2350 (Millipore) fluorescent plate reader. […]
(§3) The “% inhibition” was calculated as follows: [formula]
(§4) Concentration versus % inhibition curves were constructed in Prism (GraphPad, Inc.). The data was analyzed using “Top & Bottom Fixed” routine. […]

A further data set has as its target T2, CYP2C19 (Homo sapiens, UniProt P33261).
T2 construct: purchased Gentest Corporation P259
The data set is described as follows: Cytochrome P450 enzyme assay, CYP2C19 (Gentest Supersomes, fluorometric). Format: in vitro ADME. The settings on record: human recombinant enzyme, mean IC50; read-out: CP450 2C19 IC50. As to the method:
as §1, §2
A 0.2 ml/well reaction mixture containing 1 pmol CYP2C19 (P259), 1.3 mM NADP^+, 3.3 mM glucose-6-phosphate, 3.3 mM magnesium chloride, 0.4 U/ml glucose-6-phosphate dehydrogenase and 25 μM 3-cyano-7-ethoxycoumarin in 50 mM potassium phosphate (pH 7.4), was incubated at 37° C. for 45 minutes. Tranylcypromine, a standard inhibitor of CYP2C19, was serially diluted from the highest concentration of 500 μM and acted as a positive control. The test compound was serially diluted from the highest concentration of 100 μM. After incubation, the reaction was stopped by the addition of 75 μl stop solution (80% acetonitrile/20% 0.5 M Tris base) and fluorescence/well was read within 1 hour using a Spectra Fluor (Tecan) fluorescent plate reader. […]
as §3, §4

For data set [1], the system named is rats exposed to acute hypoxia. Description: Acute hypoxia model, mean pulmonary arterial pressure (MPAP) increase. The settings on record: in vivo model, rat. As to the method: The chamber was gassed by adding N2 to the chamber intermittently from a liquid N2 reservoir. A baralyme (Allied Health Care Products, St. Louis, Mo., USA) CO2 scrubber kept the CO2 concentration <0.2%. Relative humidity within the chamber was kept <70% with anhydrous CaSO4. Boric acid was used to keep NH3 levels within the chamber at a minimum. See, Tilton et al. (2000) Pulm. Pharm. Ther. 13:87-97. In the initial experiment, effects of a test compound were assessed on mean pulmonary arterial pressure (MPAP) of rats subsequently exposed to acute hypoxia 90 min in duration. […] All catheters were connected to polyethylene (PE 20) tubing, and were exteriorized at the back of the neck by a stainless steel wire (0.018 in. diam) tunneled subcutaneously. Two days later, MPAP was recorded through the femoral and pulmonary arterial cannulas via transducers coupled to a polygraph recorder. […] Pulmonary pressure rapidly returned toward baseline values when this group was returned to room air at the end of the experiment.

Data set [2] deals with DOCA-salt hypertensive rat. The data set is described as follows: Deoxycorticosterone acetate (DOCA)-salt hypertensive rat model. The settings on record: in vivo. As to the method: Selected compounds disclosed herein have been tested for activity in the deoxycorticosterone acetate (DOCA)-salt hypertensive rat model. To perform these tests, silastic MDX4-4210 elastomer implants containing 47 mg (DOCA) were prepared according to the method of Ornmsbee et al. ((1973) the J. Pharm. Sci. 62:255-257). Briefly, DOCA is incorporated into silicon rubber implants for sustained release. To prepare the implants the DOCA is incorporated into unpolymerized silicone rubber, catalyst is added and the mixture is cast in a hemicylindrical shape.
Sprague Dawley rats (7-8 weeks old) were unilaterally nephrectomized under ketamine anesthesia and a DOCA-implant was placed on the left lateral dorsal abdomen of the animal. The rats were allowed to recover for three weeks. During recovery they were permitted free access to normal rat chow and 0.9% NaCl drinking solution in place of drinking water. The rats develop hypertension within 3 weeks. […]
On the day of experimentation, catheters were inserted under brevital anesthesia into the right femoral artery for measurement of blood pressure, and into the right femoral vein for administration of a selected compound. The animals were placed in a restrainer and allowed to recover for a minimum of 60 min or until a steady mean arterial blood pressure was recorded. […] Blood pressure was recorded continuously for a further 10 hrs.

By pIC50 is commonly meant the negative decadic logarithm of the IC50, by convention in mol/L. A word on the melting point: it is the temperature, or range, at which the solid turns liquid.

T2 sequence (P33261 whole entry): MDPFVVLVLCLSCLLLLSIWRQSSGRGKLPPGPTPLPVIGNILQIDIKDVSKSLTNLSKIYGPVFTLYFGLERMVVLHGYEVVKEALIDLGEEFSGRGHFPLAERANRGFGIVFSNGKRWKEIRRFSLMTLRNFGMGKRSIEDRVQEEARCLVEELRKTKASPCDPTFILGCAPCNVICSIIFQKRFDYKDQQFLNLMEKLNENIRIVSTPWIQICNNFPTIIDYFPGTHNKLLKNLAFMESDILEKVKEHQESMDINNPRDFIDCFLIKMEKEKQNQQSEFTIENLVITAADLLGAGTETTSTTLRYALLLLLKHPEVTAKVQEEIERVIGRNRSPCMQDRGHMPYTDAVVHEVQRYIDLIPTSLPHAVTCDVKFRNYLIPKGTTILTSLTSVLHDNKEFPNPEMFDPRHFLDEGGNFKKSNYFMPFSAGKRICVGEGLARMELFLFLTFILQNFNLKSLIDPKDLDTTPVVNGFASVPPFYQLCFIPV
T1 sequence (P11712 whole entry): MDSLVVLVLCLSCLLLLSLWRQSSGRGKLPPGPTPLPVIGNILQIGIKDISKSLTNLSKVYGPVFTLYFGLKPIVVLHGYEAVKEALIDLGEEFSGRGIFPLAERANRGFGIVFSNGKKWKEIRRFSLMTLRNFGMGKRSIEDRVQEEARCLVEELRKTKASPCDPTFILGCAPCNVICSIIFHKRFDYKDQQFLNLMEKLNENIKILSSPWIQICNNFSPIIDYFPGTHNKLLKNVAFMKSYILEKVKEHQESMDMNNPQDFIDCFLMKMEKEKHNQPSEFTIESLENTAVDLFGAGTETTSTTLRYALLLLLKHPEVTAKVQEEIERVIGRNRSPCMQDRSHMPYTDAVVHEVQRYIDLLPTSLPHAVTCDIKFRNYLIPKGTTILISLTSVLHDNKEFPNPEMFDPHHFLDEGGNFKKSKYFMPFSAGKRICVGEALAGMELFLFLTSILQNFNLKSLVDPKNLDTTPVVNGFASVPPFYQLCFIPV

Consider `Cc1cc(C)c(NC(=O)c2sccc2S(=O)(=O)Nc2onc(C)c2Cl)c(S(C)(=O)=O)c1` [Compound 42, 3-{[(4-chloro-3-methyl-5-isoxazolyl)amino]sulfonyl)-N-[2,4-dimethyl-6-(methylsulfonyl)phenyl]-2-thiophenecarboxamide], for which the melting point was 208 to 210 °C. Further, on CYP2C9, the pIC50 was 5.28. Also, at CYP2C19, the pIC50 was 5.21.
On to `CC(=O)c1cc(C)cc(C)c1NC(=O)c1sccc1S(=O)(=O)Nc1onc(C)c1C` [Compound 7, N-(2-acetyl-4,6-dimethylphenyl)-3-{[(3,4 dimethyl-5-isoxazolyl)amino]sulfonyl}-2-thiophenecarboxamide], for which the pIC50 on CYP2C9 was 5.12; at CYP2C19, 3.90. The figures for the “Acute Hypoxia: dose to achieve 50% inhibition of mean pulmonary artery pressure increase” value in data set [1] (listed as N-(2-acetyl-4,6-dimethylphenyl)-3-{[(3,4 dimethyl-5-isoxazolyl)amino]-sulfonyl}-) and in data set [1] (listed as N-(2-acetyl-4,6-dimethylphenyl)-3-{[(3,4 dimethyl-5-isoxazolyl)amino]sulfonyl}-2) were 1 mg/kg and “approximately 1 mg/kg”, respectively. Also, the “effect on blood pressure in the hypertensive rat model” value in data set [2] is given as “effective in decreasing blood pressure”.
In turn, `Cc1cc(C)c(NC(=O)c2sccc2S(=O)(=O)Nc2onc(C)c2Cl)c(Cl)c1` [Compound 34, N-(2-chloro-4,6-dimethylphenyl)-3-{[(4-chloro-3-methyl-5-isoxazolyl)amino]sulfonyl}2-thiophenecarboxamide] had a melting point of 174 to 176 °C. For the same molecule, at CYP2C9, the pIC50 was 6.25. The pIC50 at CYP2C19 is 5.34.
`Cc1cc2c(cc1CC(=O)c1sccc1S(=O)(=O)Nc1onc(C)c1Cl)OCO2` [N-(4-chloro-3-methyl-5-isoxazolyl)-2-{[3,4-(methylenedioxy)-6-methylphenyl)acetyl]-thiophene-3-sulfonamide, reference compound]: the figures for the pIC50 at CYP2C9 and on CYP2C19 were 7.52 and 6.70, respectively. The “Acute Hypoxia: dose to achieve 50% inhibition of mean pulmonary artery pressure increase” value in data set [1] is reported as 2.5 mg/kg.
